Molecular target: T1, human histamine H3 receptor (Homo sapiens, UniProt Q9Y5N1)
T1 construct: One microgram of supercoiled H3 receptor cDNA was added to the cells and mixed; expressed in transfected cells; membranes
Experiment: {3H}-N-methylhistamine binding to membranes of histamine H3 receptor-expressing SK-N-MC cells
Conditions: 0.8 nM {3H}-N-methylhistamine, 45 min at 25° C., Ki=(IC50)/(1+({L}/(Kd)), Kd 800 pM)
Experimental: Transfection of Cells with Human Histamine Receptor
A 10 cm tissue culture dish with a confluent monolayer of SK-N-MC cells was split two days prior to transfection. Using sterile technique the media was removed and the cells were detached from the dish by the addition of trypsin. One fifth of the cells were then placed onto a new 10 cm dish. Cells were grown in a 37° C. incubator with 5% CO2 in Minimal Essential Media Eagle with 10% Fetal Bovine Serum. After two days cells were approximately 80% confluent. These were removed from the dish with trypsin and pelleted in a clinical centrifuge. The pellet was then re-suspended in 400 μL complete media and transferred to an electroporation cuvette with a 0.4 cm gap between the electrodes. One microgram of supercoiled H3 receptor cDNA was added to the cells and mixed. The voltage for the electroporation was set at 0.25 kV, the capacitance was set at 960 μF. After electroporation the cells were diluted into 10 mL complete media and plated onto four 10 cm dishes. Because of the variability in the efficiency of electroporation, four different concentrations of cells were plated. The ratios used were; 1:20, 1:10, 1:5, with the remainder of the cells being added to the fourth dish. The cells were allowed to recover for 24 h before adding the selection media (complete media with 600 μg/mL G418). After 10 days dishes were analyzed for surviving colonies of cells. Dishes with well-isolated colonies were used. Cells from individual colonies were isolated and tested. SK-N-MC cells were used because they give efficient coupling for inhibition of adenylate cyclase. The clones that gave the most robust inhibition of adenylate cyclase in response to histamine were used for further study.
{^3H}-N-methylhistamine Binding
Cell pellets from histamine H3 receptor-expressing SK-N-MC cells were homogenized in 20 mM Tris HCl/0.5 mM EDTA. Supernatants from an 800 g spin were collected, recentrifuged at 30,000 g for 30 min. Pellets were re-homogenized in 50 mM Tris/5 mM EDTA (pH 7.4). Membranes were incubated with 0.8 nM {^3H}-N-methylhistamine plus/minus test compounds for 45 min at 25° C. and harvested by rapid filtration over GF/C glass fiber filters (pretreated with 0.3% polyethylenimine) followed by four washes with ice-cold buffer. Filters were dried, added to 4 mL scintillation cocktail and then counted on a liquid scintillation counter. Non-specific binding was defined with 10 μM histamine. The pKi values were calculated based on a Kd of 800 pM and a ligand concentration ({L}) of 800 pM according to the formula: Ki=(IC50)/(1+({L}/(Kd))

T1 sequence (Q9Y5N1 whole entry): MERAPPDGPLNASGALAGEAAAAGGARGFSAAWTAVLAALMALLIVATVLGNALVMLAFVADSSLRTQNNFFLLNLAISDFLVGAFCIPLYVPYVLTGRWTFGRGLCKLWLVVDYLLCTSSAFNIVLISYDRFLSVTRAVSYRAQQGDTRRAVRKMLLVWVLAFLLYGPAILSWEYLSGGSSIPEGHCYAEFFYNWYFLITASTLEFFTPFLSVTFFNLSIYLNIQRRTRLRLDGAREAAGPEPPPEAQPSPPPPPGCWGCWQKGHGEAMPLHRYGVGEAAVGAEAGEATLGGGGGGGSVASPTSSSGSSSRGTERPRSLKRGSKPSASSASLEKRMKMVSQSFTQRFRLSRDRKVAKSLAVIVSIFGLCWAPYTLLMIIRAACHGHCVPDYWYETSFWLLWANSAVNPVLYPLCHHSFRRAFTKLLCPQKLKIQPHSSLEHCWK

SMILES | Ki [nM]
Cc1cc(CN2CCN(C(C)C)CC2)ccc1N1CCC(CN2CCCC2)CC1 [Example 73, 1-Isopropyl-4-[3-methyl-4-(4-pyrrolidin-1-ylmethyl-piperidin-1-yl)-benzyl]-piperazine] | 16
c1cc(N2CCC(N3CCOCC3)CC2)ccc1CN1CCOCC1 [Example 50, 4-{1-(4-Morpholin-4-ylmethyl-phenyl)-piperidin-4-yl}-morpholine] | 272
c1cc(N2CCC(CN3CCCC3)CC2)ccc1CN1CCCCC1 [Example 45, 1-{4-(4-Pyrrolidin-1-ylmethyl-piperidin-1-yl)-benzyl}-piperidine] | 2
c1cc(N2CCC(N3CCCC3)CC2)ccc1CN1CCOCC1 [Example 51, 4-{4-(4-Pyrrolidin-1-yl-pieridin-1-yl)-benzyl}-morpholine] | 17
c1cc(N2CCC(CN3CCCC3)CC2)ccc1CN1CCOCC1 [Example 41, 4-{4-(4-Pyrrolidin-1-ylmethyl-piperidin-1-yl)-benzyl}-morpholine] | 12
c1cc(N2CCC(CN3CCOCC3)CC2)ccc1CN1CCCC1 [Example 31, 4-{1-(4-Pyrrolidin-1-ylmethyl-phenyl)-pieridin-4-ylmethyl}-morpholine] | 2
CCN(CC)CCC1CCN(c2ccc(CN3CCCCC3)cc2)C1 (stereo not shown) [Example 61, Diethyl-{2-{1-(4-piperidin-1-ylmethyl-phenyl)-pyrrolidin-3-yl}-ethyl}-amine] | 0.8
c1ccc(NCc2ccc(N3CCC(N4CCCCC4)CC3)cc2)nc1 [Example 54, (4-{1,4′}Bipiperidinyl-1′-yl-benzyl)-pyridin-2-yl-amine] | 8.4
CN(C)CC1CCN(c2ccc(CN3CCCC3)cc2)CC1 [Example 26, Dimethyl-{1-(4-pyrrolidin-1-ylmethyl-phenyl)-piperidin-4-ylmethyl}-amine] | 1.7
Fc1cc(CN2CCCCC2)ccc1N1CCC(CN2CCCC2)CC1 [Example 80, 1-[3-Fluoro-4-(4-pyrrolidin-1-ylmethyl-piperidin-1-yl)-benzyl]-piperidine] | 4
CCN(C)C1CCN(c2ccc(CN3CCOCC3)cc2)CC1 [Example 49, Ethyl-methyl-{1-(4-morpholin-4-ylmethyl-phenyl)-piperidin-4-yl}-amine] | 14
c1cc(N2CCC(CN3CCCC3)CC2)ccc1CN1CCCC1 [Example 58, 4-Pyrrolidin-1-ylmethyl-1-(4-pyrrolidin-1-ylmethyl-phenyl)-piperidine] | 0.6
c1cc(N2CCC(CN3CCOCC3)CC2)ccc1CN1CCCCC1 [Example 44, 4-{1-(4-Piperidin-1-ylmethyl-phenyl)-piperidin-4-ylmethyl}-morpholine] | 5
Fc1cc(CN2CCC(c3ccccc3)CC2)ccc1N1CCC(CN2CCCC2)CC1 [Example 78, 1-{1-[2-Fluoro-4-(4-phenyl-piperidin-1-ylmethyl)-phenyl]-piperidin-4-ylmethyl}-pyrrolidine] | 7
c1cc(N2CCC(CN3CCCCC3)CC2)ccc1CN1CCCC1 [Example 30, 1-{1-(4-Pyrrolidin-1-ylmethyl-phenyl)-piperidin-4-ylmethyl}-piperidine] | 1
CN(C)Cc1ccc(N2CCC(CN3CCCC3)CC2)cc1 [Example 42, Dimethyl-{4-(4-pyrrolidin-1-ylmethyl-piperidin-1-yl)-benzyl}-amine] | 5
FC(F)(F)c1cc(CN2CCCCC2)ccc1N1CCC(CN2CCCC2)CC1 [Example 68, 1-[4-(4-Pyrrolidin-1-ylmethyl-piperidin-1-yl)-3-trifluoromethyl-benzyl]-piperidine] | 14
OC1CCN(CC2CCN(c3ccc(CN4CCCC4)cc3)CC2)CC1 [Example 28, 1-{1-(4-Pyrrolidin-1-ylmethyl-phenyl)-piperidin-4-ylmethyl}-piperidin-4-ol] | 0.8
CN1CCN(CC2CCN(c3ccc(CN4CCCC4)cc3)CC2)CC1 [Example 27, 1-Methyl-4-{1-(4-pyrrolidin-1-ylmethyl-phenyl)-piperidin-4-ylmethyl}-piperazine] | 1.4
O=[N+]([O-])c1cc(CN2CCC(O)CC2)ccc1N1CCC(CN2CCCC2)CC1 [Example 71, 1-[3-Nitro-4-(4-pyrrolidin-1-ylmethyl-piperidin-1-yl)-benzyl]-piperidin-4-ol] | 5
c1cc(N2CCC(CN3CCCC3)CC2)ccc1CN1CCSCC1 [Example 40, 4-{4-(4-Pyrrolidin-1-ylmethyl-piperidin-1-yl)-benzyl}-thiomorpholine] | 4
CN1CCN(C2CCN(c3ccc(CN4CCOCC4)cc3)CC2)CC1 [Example 48, 4-{4-{4-(4-Methyl-piperazin-1-yl)-piperidin-1-yl}-benzyl}-morpholine] | 1000

— patent publication US7279491B2 (Janssen Pharmaceutica N.V., priority 2002, dated 2007)
